Laboratory results taken from article PMC10037152 (Plant Biotechnology Journal, 2023).

Legend:
3CL^pro of SARS-CoV-2 = 3CL^pro of SARS-CoV-2 (Severe acute respiratory syndrome coronavirus 2, UniProt P0DTD1); experiment: Inhibition activity against 3CLpro by fluorescence resonance energy transfer; type: biochemical; conditions: read-out: IC50 against 3CL^pro; n = 3
PL^pro of SARS-CoV-2 = PL^pro of SARS-CoV-2 (Severe acute respiratory syndrome coronavirus 2, UniProt P0DTD1); experiment: Inhibition activity against PLpro by fluorescence resonance energy transfer; type: biochemical; conditions: read-out: IC50 against PL^pro; n = 3

## CC1(C)CC[C@]2(C(=O)O)CC[C@]3(C)C(=CC[C@@H]4[C@@]5(C)CC[C@H](O[C@@H]6O[C@H](CO)[C@@H](O)[C@H](O)[C@H]6O)C(C)(C)C5CC[C@]43C)[C@H]2C1 (some centres unmarked) [Compound 34, oleanolic acid‐3‐O‐glucoside]
3CL^pro of SARS-CoV-2
  IC50: 5.95 µM
PL^pro of SARS-CoV-2
  IC50: 7.57 µM
